Assay results as given in PMC9598656, “In Vitro Activity of Robenidine Analogues NCL259 and NCL265 against Gram-Negative Pathogens” (Antibiotics, 2022).

Experiments:
P. aeruginosa PAO1 [1] = assay: MIC, broth micro-dilution; format: cell-based, Pseudomonas aeruginosa; details: Pseudomonas aeruginosa, read-out: MIC, Single Drug
Experimental: (§1) A variety of Gram-negative reference strains (E. coli ATCC 25922, E. coli ATCC 10763, P. aeruginosa PAO1, P. aeruginosa ATCC 27853, A. baumannii ATCC 12457, A. baumannii ATCC 19606, K. pneumoniae ATCC 4352 and K. pneumoniae ATCC 33495) were used for initial screening and combination testing with PMB. The organisms were speciated using biochemical testing and MALDI-TOF mass spectrometry (Bruker, Preston, VIC, Australia). Activity testing of NCL259 and NCL265 was also carried out on 51 extraintestinal clinical E. coli isolates from companion animals, and 83 porcine and bovine enterotoxigenic E. coli (ETEC) isolates from the Australian Centre for Antimicrobial Resistance Ecology collection. E. coli wild-type (BW 25113) and its mutant BW 25113∆AcrB, in which the inner membrane component AcrB of the tripartite multidrug efflux system AcrA/AcrB/TolC has been deleted, were obtained from the bacterial collection held at Health and Biomedical Innovation, Clinical and Health Sciences, The University of South Australia. All isolates were cultured on sheep blood agar (SBA) plates at 37 °C for 18 h before being subcultured into Luria Bertaini (LB) (Oxoid, Scoresby, VIC, Australia) broth and grown to A600nm = 0.5 (equivalent to approx. 1.5 × 10^8 colony-forming units (CFU)/mL).
(§2) MICs for NCL259 and NCL265 (serial two-fold dilutions commencing at 256 µg/mL) were determined (in duplicate) in round bottom 96–well microtitre trays (Sarstedt 82.1582.001), using the broth micro-dilution method recommended by the Clinical and Laboratory Standards Institute (CLSI). We have shown previously that robenidine can chelate calcium ions from cation-adjusted Mueller-Hinton broth, which causes the loss of activity of robenidine. Therefore, LB broth was used in this study. Additionally, considering the low solubility of robenidine and its analogues in aqueous solutions, two-fold serial dilutions of stock solutions of these compounds were prepared in 100% DMSO [21]. The MIC for ampicillin against each isolate was determined for each test to serve as an internal quality control. The MICs of isolates were determined by visual reading and using an EnSpire Multimode Plate Reader 2300 at A600nm.

P. aeruginosa ATCC 27853 = assay: Checkerboard assay with PMB; format: cell-based, Pseudomonas aeruginosa; details: for MIC, Combination: NCL259 or NCL265 with PMB; for Combination Effect / FICI: with PMB
Experimental: (§3) MICs of NCL259 or NCL265 in the presence of the efflux pump inhibitor, PAβN were determined using a checkerboard assay. […] Briefly, a two-fold serial dilution of each antimicrobial solution was prepared in its appropriate solvent (e.g., DMSO for robenidine analogues and Milli-Q water for PAβN), and 1 μL of each dilution was added from wells 12 to 3 (12.8–0.25 μg/mL for robenidine analogues, and 32–2 μg/mL for PAβN). Thereafter, 89 μL of LB broth was added to each well followed by the addition of 10 μL of bacterial suspension (1–5 × 10^6 CFU/mL) to each well. In this manner, the final concentration of DMSO in each well was 1%. The plate was subsequently incubated at 37 °C for 24 h. The resazurin assay was used for assessment of drug susceptibility of NCL259 and NCL265 (Supplementary Table S1–S6). The same method was also used to test the MICs of NCL259 or NCL265 in the presence of PMB against a range of Gram-negative reference strains (E. coli ATCC 25922, E. coli ATCC 10763, P. aeruginosa PAO1, P. aeruginosa ATCC 27853, A. baumannii ATCC 12457, A. baumannii ATCC 19606, K. pneumoniae ATCC 4352 and K. pneumoniae ATCC 33495). Stock solutions were prepared prior to use (25.6–0.25 mg/mL for robenidine analogues; 12.8–0.25 mg/mL for PMB). The interaction of two antibiotics was calculated as the fractional inhibitory concentration index (FICI) using the following formula:(1) FICI=MICA in combination/MICA alone+MICB in combination/MICB alone where A is NCL259 or NCL265 and B is PAβN or PMB. According to FICI calculations, the interaction between two compounds were interpreted as follows: synergistic (FICI ≤ 0.5); additive or partially synergistic (0.5 < FICI ≤ 1); indifferent (1 < FICI ≤ 4); and antagonistic (FICI > 4), as described previously. The dose reduction index (DRI) was used to describe the difference between the effective doses of NCL259 or NCL265 in combination with PMB or PAβN in comparison to their individual doses, using the following formula:(2) DRI=MICA alone/MICA in combination
(§4) Evaluation of DRI is important clinically because it can allow the dose of a potentially toxic drug to be lowered in combination with another compound without reducing the drug’s efficacy. A DRI higher than 1 is viewed as beneficial.

P. aeruginosa PAO1 [2] = assay: Checkerboard assay with PMB; format: cell-based, Pseudomonas aeruginosa; details: for MIC, Combination: NCL259 or NCL265 with PMB; for Combination Effect / FICI: with PMB
Experimental: as §3, §4

A. baumannii ATCC 12457 = assay: Checkerboard assay with PMB; format: cell-based, Acinetobacter baumannii; details: for MIC, Combination: NCL259 or NCL265 with PMB; for Combination Effect / FICI: with PMB
Experimental: as §3, §4

K. pneumoniae ATCC 33495 = assay: Checkerboard assay with PMB; format: cell-based, Klebsiella pneumoniae; details: for MIC, Combination: NCL259 or NCL265 with PMB; for Combination Effect / FICI: with PMB
Experimental: as §3, §4

K. pneumoniae ATCC 4352 = assay: Checkerboard assay with PMB; format: cell-based, Klebsiella pneumoniae; details: for MIC, Combination: NCL259 or NCL265 with PMB; for Combination Effect / FICI: with PMB
Experimental: as §3, §4

[3] = system: Companion animal ExPEC (n = 51); assay: MIC, broth micro-dilution, clinical isolates; format: cell-based, Escherichia coli; details: for MIC range: Companion animal ExPEC (n = 51); for MIC50 / MIC90: Escherichia coli
Experimental: as §1, §2

[4] = system: Porcine/bovine ETEC (n = 83); assay: MIC, broth micro-dilution, clinical isolates; format: cell-based, Escherichia coli; details: for MIC50 / MIC90: Escherichia coli; for MIC range: Porcine/bovine ETEC (n = 83)
Experimental: as §1, §2

[5] = system: Gram-negative reference strains; assay: Checkerboard with PMB over the reference strains; format: cell-based; details: sub-inhibitory PMB
Experimental: as §3, with “Stock solutions were prepared prior to use (25.6–0.25 mg/mL for robenidine analogues; 12.8–0.25 mg/mL for PMB).” left out, “According to FICI calculations, the interaction between two compounds were interpreted as follows: synergistic (FICI ≤ 0.5); additive or partially synergistic (0.5 < FICI ≤ 1); indifferent (1 < FICI ≤ 4); and antagonistic (FICI > 4), as described previously. The dose reduction index (DRI) was used to describe the difference between the effective doses of NCL259 or NCL265 in combination with PMB or PAβN in comparison to their individual doses, using the following formula:(2) DRI=MICA alone/MICA in combination” left out

[6] = system: E. coli-type strains ATCC 11229 and ATCC 25922; set-up: method as in PMID 30318716, PMID 31312589; details: E. coli ATCC 11229 and ATCC 25922; cited from earlier work

| Structure (SMILES) | MIC (P. aeruginosa PAO1 [1]) | MIC, Combination (P. aeruginosa ATCC 27853) | Combination Effect (P. aeruginosa ATCC 27853) | FICI (P. aeruginosa ATCC 27853) | MIC, Combination (P. aeruginosa PAO1 [2]) | Combination Effect (P. aeruginosa PAO1 [2]) | FICI (P. aeruginosa PAO1 [2]) | MIC, Combination (A. baumannii ATCC 12457) | Combination Effect (A. baumannii ATCC 12457) | FICI (A. baumannii ATCC 12457) | MIC, Combination (K. pneumoniae ATCC 33495) | Combination Effect (K. pneumoniae ATCC 33495) | FICI (K. pneumoniae ATCC 33495) | MIC, Combination (K. pneumoniae ATCC 4352) | Combination Effect (K. pneumoniae ATCC 4352) | FICI (K. pneumoniae ATCC 4352) | MIC range [3] | MIC50 [3] | MIC90 [3] | MIC50 [4] | other results |
| --- | --- | --- | --- | --- | --- | --- | --- | --- | --- | --- | --- | --- | --- | --- | --- | --- | --- | --- | --- | --- | --- |
| [H]/N=C(\N)NN=C(CC1CCCCC1)c1ccc(Cl)cc1 [NCL259, (E)-2-(1-(4-chlorophenyl)-2-cyclohexylethylidene)hydrazine-1-carboximidamide] | 64 µg/mL | 2 µg/mL | Additivity (additive or partially synergistic, 0.5 < FICI ≤ 1) | 0.531 | 1 µg/mL | Additivity (additive or partially synergistic, 0.5 < FICI ≤ 1) | 0.516 | 1 µg/mL | Additivity (additive or partially synergistic, 0.5 < FICI ≤ 1) | 0.625 | 1 µg/mL | Additivity (additive or partially synergistic, 0.5 < FICI ≤ 1) | 0.516 | 1 µg/mL | Synergism (synergistic, FICI ≤ 0.5) | 0.375 | 16 to 64 µg/mL | 32 µg/mL | 32 µg/mL | 8 µg/mL | Dose Reduction Index (DRI) PMB:NCL259 (P. aeruginosa ATCC 27853; PMB + NCL259): 32; Dose Reduction Index (DRI) PMB:NCL259 (P. aeruginosa PAO1 [2]; PMB + NCL259): 64; Dose Reduction Index (DRI) PMB:NCL259 (A. baumannii ATCC 12457; PMB + NCL259): 8; Dose Reduction Index (DRI) PMB:NCL259 (K. pneumoniae ATCC 33495; PMB + NCL259): 64; Dose Reduction Index (DRI) PMB:NCL259 (K. pneumoniae ATCC 4352; PMB + NCL259): 8; MIC90 [4]: 8 µg/mL; MIC range [4]: 4 to 64 µg/mL; reduction of MIC in combination with PMB [5]: 8- to 256 fold; MBC [6]: 8 to 16 µg/mL; MIC [6]: 8 to 16 µg/mL |
| [H]/N=C(\N)NN=C(CCCCCC)c1ccc(Cl)cc1 [NCL265, (E)-2-(1-(4-chlorophenyl)heptylidene)hydrazine-1-carboximidamide] | 64 µg/mL | 0.5 µg/mL | Additivity (additive or partially synergistic, 0.5 < FICI ≤ 1) | 0.516 | 0.25 µg/mL | Additivity (additive or partially synergistic, 0.5 < FICI ≤ 1) | 0.504 | 0.5 µg/mL | Additivity (additive or partially synergistic, 0.5 < FICI ≤ 1) | 0.75 | 2 µg/mL | Synergism (synergistic, FICI ≤ 0.5) | 0.281 | 0.5 µg/mL | Synergism (synergistic, FICI ≤ 0.5) | 0.5 | 4 to 16 µg/mL | 32 µg/mL | 32 µg/mL | 8 µg/mL | Dose Reduction Index (DRI) PMB:NCL265 (P. aeruginosa ATCC 27853; PMB + NCL265): 64; Dose Reduction Index (DRI) PMB:NCL265 (P. aeruginosa PAO1 [2]; PMB + NCL265): 256; Dose Reduction Index (DRI) PMB:NCL265 (A. baumannii ATCC 12457; PMB + NCL265): 4; Dose Reduction Index (DRI) PMB:NCL265 (K. pneumoniae ATCC 33495; PMB + NCL265): 32; Dose Reduction Index (DRI) PMB:NCL265 (K. pneumoniae ATCC 4352; PMB + NCL265): 4:4; MIC90 [4]: 8 µg/mL; MIC range [4]: 2 to 16 µg/mL; reduction of MIC in combination with PMB [5]: 4- to 256 fold; MBC [6]: 8 to 16 µg/mL; MIC [6]: 8 to 16 µg/mL |
